Data from patent US5053070A, “Pyrimidine derivatives, preparation processes thereof, herbicide containing the same, and herbicidal compositions containing the same along with other active ingredient” (Mitsui Toatsu Chemicals, Incorporated, priority 1988, dated 1991).

Assays:
green foxtail [1] = assay: Upland soil application test (Test 2); assay type: in vivo; settings: 30 g ai/a, soil spray before emergence, 30 days later
Procedure, shortened: (§1)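 Damage was graded 30 days after treatment by comparing air-dried plant weight with that of plants in untreated pots. Test compound, given as a diluted wettable powder, had been sprayed on the soil surface one day after sowing, before any weeds emerged.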

foxtail meadow [2] = assay: Upland soil application test (Test 2); assay type: in vivo; settings: 30 g ai/a, soil spray before emergence, 30 days later
Procedure, shortened: as §1

johnsongrass [3] = assay: Upland soil application test (Test 2); assay type: in vivo; settings: 30 g ai/a, soil spray before emergence, 30 days later
Procedure, shortened: as §1

redroot pigweed = assay: Upland foliar application test (Test 3); assay type: in vivo; settings: 30 g ai/a, foliar spray at 2-3 leaves, 30th day
Description: (§2) Resin-made 1/10000-are pots were filled with the soil of an upland field. Redroot pigweed, common lambsquarters, foxtail meadow, johnsongrass, barnyardgrass, green foxtail, large crabgrass, soybean, peanut and cotton were separately seeded and were allowed to germinate in a green house. When each plant grew to the stage of 2-3 leaves, an emulsion formulated from a predetermined amount of each test compound in a similar manner to the method described in Formulation Example 11 was diluted with water to a predetermined dilution rate and then sprayed at an application rate equal to 5 l per are onto the foliage of each plant by means of a pressure-operated ULV (ultra low volume) sprayer. Influence to the crops and weeds were observed on the 30th day after the spray of the herbicides. The results are shown in Table 4 in which the degree of damages of each test plant and the degree of injury to each crop are shown in a similar manner to Test 2.

barnyardgrass [4] = assay: Upland foliar application test (Test 3); assay type: in vivo; settings: 30 g ai/a, foliar spray at 2-3 leaves, 30th day
Description: as §2

large crabgrass = assay: Upland foliar application test (Test 3); assay type: in vivo; settings: 30 g ai/a, foliar spray at 2-3 leaves, 30th day
Description: as §2

green foxtail [5] = assay: Upland foliar application test (Test 3); assay type: in vivo; settings: 30 g ai/a, foliar spray at 2-3 leaves, 30th day
Description: as §2

foxtail meadow [6] = assay: Upland foliar application test (Test 3); assay type: in vivo; settings: 30 g ai/a, foliar spray at 2-3 leaves, 30th day
Description: as §2

johnsongrass [7] = assay: Upland foliar application test (Test 3); assay type: in vivo; settings: 30 g ai/a, foliar spray at 2-3 leaves, 30th day
Description: as §2

common lambsquarters = assay: Upland foliar application test (Test 3); assay type: in vivo; settings: 30 g ai/a, foliar spray at 2-3 leaves, 30th day
Description: as §2

rice = assay: Treatment of soil under submerged condition, pre-emergence (Test 4), injury; assay type: in vivo; settings: 30 g ai/a granule, 30 days later
Description: (§3) 1/5000-are Wagner pots were filled with soil. Seeds or tubers of barnyardgrass, Monochoria vaginalis, bulrush, Sagittaria pygmaea, Cyperus seroylnus and Eleocharis kuroguwai were seeded or planted under submerged condition. Two pairs of rice seedlings (2-3 leaf stage), which had been reared in advance, were transplanted to each pot and were allowed to germinate in a green house. Each pair consisted of two rice seedlings. One day later (before emergence of weeds), each pot was treated with a granule which had been prepared by processing a predetermined amount of the test composition in accordance with a similar method to the method described in Formulation Example 9. The state of emergence of weeds and the state of injury of rice were observed 30 days later.
(§4) In the table, the degrees of damages of the test plants and the degrees of injury of rice are shown in a similar manner to Example 2.

barnyardgrass [8] = assay: Treatment of soil under submerged condition, pre-emergence (Test 4); assay type: in vivo; settings: 30 g ai/a granule, 30 days later
Description: as §3, §4

bulrush = assay: as above; assay type: in vivo; settings: 30 g ai/a granule, 30 days later
Description: as §3, §4

Sagittaria pygmaea = assay: as above; assay type: in vivo; settings: 30 g ai/a granule, 30 days later
Description: as §3, §4

[9] = system: ALS (acetolactate syntase); assay: ALS enzyme assay (Test 1); assay type: biochemical, barnyardgrass; settings: 1,000 ppm (0.5 mg/0.5 ml)
Description: To determine the selectivity in enzyme level between crops and weeds, and ALS enzyme assay was conducted using pea as a representative of broadleaf crops and barnyardgrass as a representative of narrowleaf weeds.
After seeds of pea and barnyardgrass were allowed to germinate at 25° C. for 8-14 days in a dark place, partially-purified suspensions (Suspensions A) of acetolactate syntase were separately obtained from seedlings in accordance with the method described in the literature, Plant Physiology, 75, 827-831.
In a test tube, 0.5 mg of one of test compounds was weighed, followed by the addition of 0.15 ml of a 20 mM K2 HPO4 solution and 0.25 ml of a reaction substrate medium which consisted of 40 mM of K2 HPO4, 40 mM of sodium pyruvate, 1 mM of TPP, 1 mM of MgCl2 and 20 μM of FAD so that 0.4 ml of a reaction solution (Solution B) was prepared. Added to 0.4 ml of Solution B was 0.1 ml of suspension A. After the resultant mixture was shaken for 1 hour in a thermostat water bath controlled at 30° C., 50 μl of 6N sulfuric acid were added to terminate the reaction.
Next, the reaction-terminated liquid mixture was transferred into a thermostat water bath controlled at 60° C. and was heated for 15 minutes. Thereafter, 0.5 ml of a 0.5% creatine solution and 0.5 ml of a 5% alkaline α-naphthol solution were added, and the resultant mixture was maintained at 60° C. for 15 minutes. As a result, the test solution developed a pink-red color. After the above operation, the absorbance of the test solution at 525 nm was measured by a spectrophotometer (Absorbance 1 of Test Compound).
On the other hand, the absorbance (Absorbance 2 of Blank) of a solution obtained by subjecting a portion of Solution B, said portion being free of the test compound, to the above operation and the absorbance (Absorbance 3 of sulfuric acid terminated) of another solution obtained by subjecting another portion of Solution B, said portion containing 50 μl of 6N sulfuric acid as a test compound, were measured at the same time. Based on the values of the respective measurements, the enzyme assay at 1,000 ppm (0.5 mg/0.5 ml) of each compound was determined. [formula]

COC(=O)c1ccccc1Oc1nc(OC)cc(OC)n1 [A, reference compound]
Herbicidal effects Green foxtail (green foxtail [1]): 5 (0-5 (Death)) | Herbicidal effects Foxtail meadow (foxtail meadow [2]): 5 (0-5 (Death)) | Herbicidal effects Johnsongrass (johnsongrass [3]): 5 (0-5 (Death)) | Herbicidal effects Redroot pigweed (redroot pigweed): 5 (0-5 (Death)) | Herbicidal effects Barnyardgrass (barnyardgrass [4]): 5 (0-5 (Death)) | Herbicidal effects Large crabgrass (large crabgrass): 5 (0-5 (Death)) | Herbicidal effects Green foxtail (green foxtail [5]): 5 (0-5 (Death)) | Herbicidal effects Foxtail meadow (foxtail meadow [6]): 5 (0-5 (Death)) | Herbicidal effects Johnsongrass (johnsongrass [7]): 5 (0-5 (Death)) | Herbicidal effects Common lambsquarters (common lambsquarters): 4 (6-10 (Severe damages)) | Injury Rice (rice): 5 (0-5 (Death)) | Herbicidal effects Barnyardgrass (barnyardgrass [8]): 5 (0-5 (Death)) | Herbicidal effects Bulrush (bulrush): 5 (0-5 (Death)) | Herbicidal effects Sagittaria Pygmaea (Sagittaria pygmaea): 4 (6-10 (Severe damages)) | Inhibitory activity (%) Barnyardgrass [9]: 73%

COc1cc(OC)nc(Oc2ccccc2C=O)n1 [B, reference compound]
Herbicidal effects Green foxtail (green foxtail [1]): 4 (6-10 (Severe damages)) | Herbicidal effects Foxtail meadow (foxtail meadow [2]): 4 (6-10 (Severe damages)) | Herbicidal effects Johnsongrass (johnsongrass [3]): 4 (6-10 (Severe damages)) | Herbicidal effects Redroot pigweed (redroot pigweed): 3 (11-40 (Medium damages)) | Herbicidal effects Barnyardgrass (barnyardgrass [4]): 4 (6-10 (Severe damages)) | Herbicidal effects Large crabgrass (large crabgrass): 4 (6-10 (Severe damages)) | Herbicidal effects Green foxtail (green foxtail [5]): 4 (6-10 (Severe damages)) | Herbicidal effects Foxtail meadow (foxtail meadow [6]): 4 (6-10 (Severe damages)) | Herbicidal effects Johnsongrass (johnsongrass [7]): 4 (6-10 (Severe damages)) | Herbicidal effects Common lambsquarters (common lambsquarters): 3 (11-40 (Medium damages)) | Injury Rice (rice): 5 (0-5 (Death)) | Herbicidal effects Barnyardgrass (barnyardgrass [8]): 3 (11-40 (Medium damages)) | Herbicidal effects Bulrush (bulrush): 3 (11-40 (Medium damages)) | Herbicidal effects Sagittaria Pygmaea (Sagittaria pygmaea): 5 (0-5 (Death)) | Inhibitory activity (%) Barnyardgrass [9]: 98%

CON=Cc1ccccc1Oc1nc(OC)cc(OC)n1 [Compound No. 1, O-methyl--2-(4,6-dimethoxy-2-pyrimidinyloxy)benzaldoxime]
Herbicidal effects Green foxtail (green foxtail [1]): 5 (0-5 (Death)) | Herbicidal effects Foxtail meadow (foxtail meadow [2]): 5 (0-5 (Death)) | Herbicidal effects Johnsongrass (johnsongrass [3]): 5 (0-5 (Death)) | Herbicidal effects Redroot pigweed (redroot pigweed): 5 (0-5 (Death)) | Herbicidal effects Barnyardgrass (barnyardgrass [4]): 5 (0-5 (Death)) | Herbicidal effects Large crabgrass (large crabgrass): 3 (11-40 (Medium damages)) | Herbicidal effects Green foxtail (green foxtail [5]): 5 (0-5 (Death)) | Herbicidal effects Foxtail meadow (foxtail meadow [6]): 5 (0-5 (Death)) | Herbicidal effects Johnsongrass (johnsongrass [7]): 5 (0-5 (Death)) | Herbicidal effects Common lambsquarters (common lambsquarters): 4 (6-10 (Severe damages)) | Injury Rice (rice): 0 (91-100 (No damages)) | Herbicidal effects Barnyardgrass (barnyardgrass [8]): 2 (41-70 (Small damages)) | Herbicidal effects Bulrush (bulrush): 2 (41-70 (Small damages)) | Herbicidal effects Sagittaria Pygmaea (Sagittaria pygmaea): 3 (11-40 (Medium damages)) | Inhibitory activity (%) Barnyardgrass [9]: 58%

C=CC(C)ON=Cc1ccccc1Oc1nc(OC)cc(OC)n1 (stereo not drawn) [Compound No. 2]
Herbicidal effects Green foxtail (green foxtail [1]): 5 (0-5 (Death)) | Herbicidal effects Foxtail meadow (foxtail meadow [2]): 5 (0-5 (Death)) | Herbicidal effects Johnsongrass (johnsongrass [3]): 5 (0-5 (Death)) | Herbicidal effects Redroot pigweed (redroot pigweed): 4 (6-10 (Severe damages)) | Herbicidal effects Barnyardgrass (barnyardgrass [4]): 5 (0-5 (Death)) | Herbicidal effects Large crabgrass (large crabgrass): 5 (0-5 (Death)) | Herbicidal effects Green foxtail (green foxtail [5]): 5 (0-5 (Death)) | Herbicidal effects Foxtail meadow (foxtail meadow [6]): 5 (0-5 (Death)) | Herbicidal effects Johnsongrass (johnsongrass [7]): 5 (0-5 (Death)) | Herbicidal effects Common lambsquarters (common lambsquarters): 4 (6-10 (Severe damages)) | Injury Rice (rice): 1 (71-90 (Slight damages)) | Herbicidal effects Barnyardgrass (barnyardgrass [8]): 5 (0-5 (Death)) | Herbicidal effects Bulrush (bulrush): 4 (6-10 (Severe damages)) | Herbicidal effects Sagittaria Pygmaea (Sagittaria pygmaea): 4 (6-10 (Severe damages)) | Inhibitory activity (%) Barnyardgrass [9]: 21%

COc1cc(OC)nc(Oc2ccccc2C=NOC2CCCCC2)n1 [Compound No. 3]
Herbicidal effects Green foxtail (green foxtail [1]): 4 (6-10 (Severe damages)) | Herbicidal effects Foxtail meadow (foxtail meadow [2]): 3 (11-40 (Medium damages)) | Herbicidal effects Johnsongrass (johnsongrass [3]): 4 (6-10 (Severe damages)) | Herbicidal effects Redroot pigweed (redroot pigweed): 4 (6-10 (Severe damages)) | Herbicidal effects Barnyardgrass (barnyardgrass [4]): 5 (0-5 (Death)) | Herbicidal effects Large crabgrass (large crabgrass): 4 (6-10 (Severe damages)) | Herbicidal effects Green foxtail (green foxtail [5]): 5 (0-5 (Death)) | Herbicidal effects Foxtail meadow (foxtail meadow [6]): 5 (0-5 (Death)) | Herbicidal effects Johnsongrass (johnsongrass [7]): 5 (0-5 (Death)) | Herbicidal effects Common lambsquarters (common lambsquarters): 4 (6-10 (Severe damages)) | Injury Rice (rice): 0 (91-100 (No damages)) | Herbicidal effects Barnyardgrass (barnyardgrass [8]): 4 (6-10 (Severe damages)) | Herbicidal effects Bulrush (bulrush): 4 (6-10 (Severe damages)) | Herbicidal effects Sagittaria Pygmaea (Sagittaria pygmaea): 5 (0-5 (Death)) | Inhibitory activity (%) Barnyardgrass [9]: 22%

C=CCON=Cc1ccccc1Oc1nc(OC)cc(OC)n1 [Compound No. 4]
Herbicidal effects Green foxtail (green foxtail [1]): 5 (0-5 (Death)) | Herbicidal effects Foxtail meadow (foxtail meadow [2]): 5 (0-5 (Death)) | Herbicidal effects Johnsongrass (johnsongrass [3]): 5 (0-5 (Death)) | Herbicidal effects Redroot pigweed (redroot pigweed): 4 (6-10 (Severe damages)) | Herbicidal effects Barnyardgrass (barnyardgrass [4]): 5 (0-5 (Death)) | Herbicidal effects Large crabgrass (large crabgrass): 3 (11-40 (Medium damages)) | Herbicidal effects Green foxtail (green foxtail [5]): 5 (0-5 (Death)) | Herbicidal effects Foxtail meadow (foxtail meadow [6]): 5 (0-5 (Death)) | Herbicidal effects Johnsongrass (johnsongrass [7]): 5 (0-5 (Death)) | Herbicidal effects Common lambsquarters (common lambsquarters): 3 (11-40 (Medium damages)) | Injury Rice (rice): 0 (91-100 (No damages)) | Herbicidal effects Barnyardgrass (barnyardgrass [8]): 4 (6-10 (Severe damages)) | Herbicidal effects Bulrush (bulrush): 4 (6-10 (Severe damages)) | Herbicidal effects Sagittaria Pygmaea (Sagittaria pygmaea): 4 (6-10 (Severe damages)) | Inhibitory activity (%) Barnyardgrass [9]: 59%

COc1cc(OC)nc(Oc2ccccc2C=NOCC=C(C)C)n1 [Compound No. 7]
Herbicidal effects Green foxtail (green foxtail [1]): 5 (0-5 (Death)) | Herbicidal effects Foxtail meadow (foxtail meadow [2]): 5 (0-5 (Death)) | Herbicidal effects Johnsongrass (johnsongrass [3]): 5 (0-5 (Death)) | Herbicidal effects Redroot pigweed (redroot pigweed): 5 (0-5 (Death)) | Herbicidal effects Barnyardgrass (barnyardgrass [4]): 5 (0-5 (Death)) | Herbicidal effects Large crabgrass (large crabgrass): 5 (0-5 (Death)) | Herbicidal effects Green foxtail (green foxtail [5]): 5 (0-5 (Death)) | Herbicidal effects Foxtail meadow (foxtail meadow [6]): 5 (0-5 (Death)) | Herbicidal effects Johnsongrass (johnsongrass [7]): 5 (0-5 (Death)) | Herbicidal effects Common lambsquarters (common lambsquarters): 4 (6-10 (Severe damages)) | Injury Rice (rice): 1 (71-90 (Slight damages)) | Herbicidal effects Barnyardgrass (barnyardgrass [8]): 5 (0-5 (Death)) | Herbicidal effects Bulrush (bulrush): 4 (6-10 (Severe damages)) | Herbicidal effects Sagittaria Pygmaea (Sagittaria pygmaea): 5 (0-5 (Death)) | Inhibitory activity (%) Barnyardgrass [9]: 84%
